pIC50: −log10 of the molar value. Converted amounts (≈) assume the structure as drawn.

The results in this text go back to ChEMBL document CHEMBL5316265, “Discovery of Clinical Candidate AZD0095, a Selective Inhibitor of Monocarboxylate Transporter 4 (MCT4) for Oncology” (J Med Chem, 2023).

Series [1] in a line: Lipophilicity, logD of the compound at pH 7.4. The class given is physicochemical. Conditions: buffer.
Series [2] in a line: Aqueous solubility of the compound in pH 7.4 buffer. The class given is physicochemical.
The target of series [3] is Voltage-gated inwardly rectifying potassium channel KCNH2 (Homo sapiens, UniProt Q12809). In words: Inhibition of human ERG. The class given is toxicity.
Series [4] has as its target T1, Monocarboxylate transporter 1 (Homo sapiens, UniProt P53985).
T1 sequence (P53985 whole entry): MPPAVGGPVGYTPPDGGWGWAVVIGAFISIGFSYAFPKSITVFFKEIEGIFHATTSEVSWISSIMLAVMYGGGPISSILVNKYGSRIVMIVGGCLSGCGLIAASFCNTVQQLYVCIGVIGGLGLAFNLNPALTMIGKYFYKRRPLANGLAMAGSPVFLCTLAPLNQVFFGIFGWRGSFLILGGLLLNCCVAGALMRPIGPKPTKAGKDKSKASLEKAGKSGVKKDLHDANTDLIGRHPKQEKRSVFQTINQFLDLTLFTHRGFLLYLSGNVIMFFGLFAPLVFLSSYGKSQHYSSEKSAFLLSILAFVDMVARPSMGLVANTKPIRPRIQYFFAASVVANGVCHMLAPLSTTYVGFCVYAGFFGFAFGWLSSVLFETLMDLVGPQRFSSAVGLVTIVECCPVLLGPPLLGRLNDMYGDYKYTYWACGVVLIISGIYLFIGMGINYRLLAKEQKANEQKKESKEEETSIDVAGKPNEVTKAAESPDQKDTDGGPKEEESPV
Kind of series: Inhibition of MCT1 in human K562 cells assessed as inhibition of lactate efflux incubated for 1 hr by FLIPR method. Format: cell-based.

Series [5] can be described thus: Apparent permeability of the compound across apical side to basolateral side in human Caco-2 cells. Format: ADME, cell-based.
Series [6] can be described thus: Thermodynamic solubility of the compound in FaSSIF using crystalline form of sample at pH 6.5. Format: physicochemical. The conditions noted are these: read-out: Therm_solubility.
Series [7] can be described thus: Plasma protein binding in human assessed as free fraction. The class given is ADME, cell-free.
A short description of series [8]: Plasma protein binding in rat assessed as free fraction. Format: ADME, cell-free.
Series [9] in a line: Plasma protein binding in dog assessed as free fraction. Format: ADME, cell-free, Canis lupus familiaris.
Series [10] can be described thus: Metabolic stability in human hepatocytes assessed as intrinsic clearance measured per million cells. The class given is ADME, cell-based, Hepatocyte. The conditions noted are these: read-out: CLH.
A short description of series [11]: Metabolic stability in dog hepatocytes assessed as intrinsic clearance measured per million cells. Format: ADME, cell-based, Canis lupus familiaris, Hepatocyte. The conditions noted are these: read-out: CLH.
Series [12] can be described thus: Clearance in Wistar rat at 2 mg/kg, iv. Format: ADME, organism-based. The conditions noted are these: in vivo.
Series [13] can be described thus: Clearance in Beagle dog at 1 mg/kg, iv. Format: ADME, organism-based, Canis lupus familiaris. Conditions: in vivo.
The nature of series [14]: Oral bioavailability in Wistar rat at 5 mg/kg. The class given is ADME, organism-based. The conditions noted are these: in vivo.
Series [15] in a line: Oral bioavailability in Beagle dog at 2 mg/kg. The class given is ADME, organism-based, Canis lupus familiaris. Conditions: in vivo.
The next series has as its system NCI-H358. Kind of series: Antiproliferative activity against human NCI-H358 cells assessed as cell growth inhibition. The class given is functional.
Series [16] is described as follows: Toxicity in mouse assessed as body weight loss at 100 mg/kg BID administered twice daily for 17 days via oral gavage. The class given is organism-based. The conditions noted are these: in vivo, 408 h, time 17 day.
A short description of series [17]: Toxicity in mouse assessed as body weight loss at 100 mg/kg BID administered twice daily for 17 days via oral gavage in presence of cediranib. Format: organism-based. Conditions: in vivo, 408 h, time 17 day.
The nature of series [18]: Metabolic stability in rat hepatocytes measured per million cells. Format: ADME, cell-based, Hepatocyte. The conditions noted are these: read-out: CLH.
Series [19] can be described thus: Metabolic stability in human hepatocytes measured per million cells. The class given is ADME, cell-based, Hepatocyte. Conditions: read-out: CLH.
A short description of series [20]: Oral bioavailability in rat. The conditions noted are these: in vivo. The class given is ADME, organism-based.
A short description of series [21]: Clearance in rat. Format: ADME. Conditions: in vivo.
Series [22] deals with T2, Monocarboxylate transporter 4 (Homo sapiens, UniProt O15427).
T2 sequence (O15427 whole entry): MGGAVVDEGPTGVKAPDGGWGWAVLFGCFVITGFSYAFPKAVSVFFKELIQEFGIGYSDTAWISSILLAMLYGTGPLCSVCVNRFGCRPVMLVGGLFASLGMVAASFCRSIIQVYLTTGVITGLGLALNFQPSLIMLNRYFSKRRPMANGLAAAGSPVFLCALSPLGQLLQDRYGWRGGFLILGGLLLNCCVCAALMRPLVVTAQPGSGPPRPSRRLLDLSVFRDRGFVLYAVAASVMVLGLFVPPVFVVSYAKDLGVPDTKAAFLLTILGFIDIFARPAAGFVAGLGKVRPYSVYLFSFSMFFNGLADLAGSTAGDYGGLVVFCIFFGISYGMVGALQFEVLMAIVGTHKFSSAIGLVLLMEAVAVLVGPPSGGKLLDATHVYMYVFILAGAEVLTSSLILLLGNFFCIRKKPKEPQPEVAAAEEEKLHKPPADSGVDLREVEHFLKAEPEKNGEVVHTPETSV
In words: Inhibition of MCT4 in human SK-BR-3 cells assessed as inhibition of lactate efflux incubated for 4 hrs by automated microplate reader analysis. Format: cell-based.

The nature of series [23]: Efflux ratio of apparent permeability basolateral to apical side over apical to basolateral side in human Caco-2 cells. Format: ADME, cell-based.

Sequence of Voltage-gated inwardly rectifying potassium channel KCNH2 (Q12809 whole entry): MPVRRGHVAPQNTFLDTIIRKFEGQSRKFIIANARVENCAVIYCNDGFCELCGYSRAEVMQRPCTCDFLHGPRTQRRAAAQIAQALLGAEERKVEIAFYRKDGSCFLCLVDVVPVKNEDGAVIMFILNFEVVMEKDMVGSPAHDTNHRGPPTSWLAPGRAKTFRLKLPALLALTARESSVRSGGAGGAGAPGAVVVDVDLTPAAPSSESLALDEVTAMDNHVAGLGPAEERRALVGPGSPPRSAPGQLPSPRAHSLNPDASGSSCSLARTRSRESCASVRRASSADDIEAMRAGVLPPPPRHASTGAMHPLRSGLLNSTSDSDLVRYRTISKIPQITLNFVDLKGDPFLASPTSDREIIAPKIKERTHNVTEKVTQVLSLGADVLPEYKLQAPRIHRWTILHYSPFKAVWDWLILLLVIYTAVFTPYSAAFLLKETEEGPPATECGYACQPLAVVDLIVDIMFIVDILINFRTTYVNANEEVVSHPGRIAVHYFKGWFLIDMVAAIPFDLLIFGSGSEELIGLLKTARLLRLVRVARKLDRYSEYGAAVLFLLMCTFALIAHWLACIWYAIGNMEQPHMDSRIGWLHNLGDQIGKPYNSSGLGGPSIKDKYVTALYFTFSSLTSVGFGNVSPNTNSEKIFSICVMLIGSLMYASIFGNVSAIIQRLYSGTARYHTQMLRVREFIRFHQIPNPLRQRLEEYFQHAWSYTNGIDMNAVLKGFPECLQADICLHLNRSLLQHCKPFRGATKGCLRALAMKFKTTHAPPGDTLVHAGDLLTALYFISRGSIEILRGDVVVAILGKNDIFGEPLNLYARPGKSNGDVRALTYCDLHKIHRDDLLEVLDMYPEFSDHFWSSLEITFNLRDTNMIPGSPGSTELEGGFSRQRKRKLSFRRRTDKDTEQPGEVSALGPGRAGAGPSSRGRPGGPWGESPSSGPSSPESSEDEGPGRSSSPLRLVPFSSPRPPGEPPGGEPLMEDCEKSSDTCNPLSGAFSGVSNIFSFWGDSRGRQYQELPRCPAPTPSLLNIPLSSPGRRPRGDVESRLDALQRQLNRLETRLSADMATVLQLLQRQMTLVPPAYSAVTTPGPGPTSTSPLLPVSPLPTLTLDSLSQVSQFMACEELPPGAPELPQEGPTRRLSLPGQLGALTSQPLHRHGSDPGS

In [1], `Cc1nc2nc(C)c(CCNC(=O)c3cnc(-c4ccccc4)cn3)c(C)n2n1` had a logD of 2.4. Further, in series [2], the solubility came out at 3 µM (≈ 1.16 µg/mL).

`Cc1nc2nc(C)c(CCNC(=O)c3nnc(-c4ccccc4)s3)c(C)n2n1`: the logD in series [1] stood at 2.5.

Consider `Cc1nc2ncnn2c(C)c1CCC(=O)Nc1nnc(-c2ccc(C(C)C)cc2)s1`, for which the logD in series [1] came to 3.7.

As for `Cc1nc2nc(C)c(CCNC(=O)c3cnc(-c4ccc([C@H]5COCCN5C)cc4)cn3)c(C)n2n1`, the logD in series [1] was found to be 1.9. The concentration in solution in series [2] (solubility) was 224 µM (≈ 109 µg/mL).

Regarding `Cc1nc2ncnn2c(C)c1CCC(=O)Nc1nnc(-c2ccccc2)s1`, the logD in series [1] turned out to be 2.5.

Consider `Cc1nc2nc(C)c(O[C@@H]3CCN(c4ccc(-c5ccc(CN6CCN(C)CC6)nn5)cc4)C3)c(C)n2n1`, for which, in series [1], the logD is 1.4. The molecule also showed a pIC50 in series [3] of less than 4.48.

On to `Cc1nc2nc(C)c(C[C@@H]3CCN(c4ccc(-c5ccc(CN6CCOCC6)nn5)cc4)C3)c(C)n2n1`, for which, in [1], the logD came out at 2.3. This molecule gave a pIC50 in series [3] of 4.89.

As for `Cc1nc2nc(C)c(CCNC(=O)c3cnc(-c4ccc([C@@H]5COCCN5C)cc4)cn3)c(C)n2n1`, the logD in series [1] was determined as 1.9. Moreover, the solubility in series [2] is more than 300 µM.

`Cc1nc2nc(C)c(CCC(=O)Nc3nnc(-c4ccccc4)s3)c(C)n2n1`: the logD in series [1] turned out to be 2.8.

`Cc1nc2nc(C)c(O[C@@H]3CCN(c4ccc(-c5ccc(CN6CCOCC6)nn5)cc4)C3)c(C)n2n1` displayed a logD in series [1] of 1.8. Further, the negative-log IC50 (pIC50) is 4.54 in series [3] and less than 4.52 in series [4]. Moreover, the Papp A→B in [5] was determined as 130 nm/s. Besides, the solubility thermodynamic in [6] is 839 µM (≈ 420 µg/mL). Further, the fraction unbound in series [7] stood at 0.32; in series [8], 0.3; in series [9] it was 0.39. Moreover, the hepatocyte CLint in [10] was found to be 1.9 µL/min/1e6 cells; in [11], 3.3 µL/min/1e6 cells. Besides, the clearance in series [12] came to 0.9 L/h/kg; in series [13], 0.84 L/h/kg. The bioavailability in series [14] was found to be 106%; in [15], 84%. The GI50 with NCI-H358 was determined as 0.026 µM. The Activity result in [16] and in [17] was “Non-Toxic” each time.

Regarding `Cc1nc2nc(C)c(C[C@@H]3CCN(c4ccc(-c5cnc(CN6CCOCC6)cn5)cc4)C3)c(C)n2n1`, the logD in series [1] was determined as 2.7.

In turn, `Cc1nc2nc(C)c(C[C@@H]3CCN(c4cnc(-c5ccc(CN6CCN(C)CC6)cc5)cn4)C3)c(C)n2n1` gave a logD in [1] of 2. Further, the pIC50 in [3] was less than 4.62. Besides, the hepatocyte CLint was less than 2 µL/min/1e6 cells in series [18] and 1.9 µL/min/1e6 cells in [19]. The bioavailability in series [20] was determined as 61%. Besides, in [21], the clearance was 1.74 L/h/kg.

Consider `Cc1nc2nc(C)c(CCNC(=O)c3ccc(-c4ccccc4)cc3)c(C)n2n1`, for which the logD in series [1] was 3.4. The molecule also registered a solubility in [2] of 2 µM (≈ 0.771 µg/mL).

On to `Cc1nc2nc(C)c(C[C@@H]3CCN(c4cnc(-c5ccc(CN6CCOCC6)cc5)cn4)C3)c(C)n2n1`, for which the values for the pIC50 in series [22] and in [3] were more than 9.42 and 5.74, respectively. In series [1], this molecule gave a logD of 2.6. The efflux ratio in series [23] was 1.1. Moreover, the hepatocyte CLint turned out to be 13 µL/min/1e6 cells in series [18] and 3.4 µL/min/1e6 cells in series [19]. The bioavailability in series [20] stood at 47%. Moreover, the clearance in series [21] came out at 3.18 L/h/kg.

`Cc1nc2nc(C)c(CCNC(=O)c3cnc(-c4ccc(CN5CCOCC5)cc4)cn3)c(C)n2n1` displayed a logD in series [1] of 1.8. This molecule also had a solubility in series [2] of 138 µM (≈ 67.1 µg/mL). In addition, the pIC50 in series [3] is 4.62. Further, the values for the hepatocyte CLint in series [18] and in series [19] were 17 µL/min/1e6 cells and 2.5 µL/min/1e6 cells, respectively. In series [20], the bioavailability was 34%. Besides, the clearance in series [21] worked out at 1.86 L/h/kg.

`CC(=O)N1CCN(Cc2ccc(-c3ccc(N4CC[C@@H](Oc5c(C)nc6nc(C)nn6c5C)C4)cc3)nn2)CC1` came in with a logD in series [1] of 1.4. This molecule also gave a pIC50 in series [3] of less than 4.48.

In series [1], `Cc1nc2nc(C)c(C[C@@H]3CCN(c4ccc(-c5ccc(CN6CCN(C)CC6)nn5)cc4)C3)c(C)n2n1` showed a logD of 1.8. This molecule also gave a pIC50 in series [3] of less than 4.48.
